For series [1], the system named is aspergillus fumigatus infection of BEAS2B cells. Description: Aspergillus fumigatus infection of bronchial epithelial cells (GM in supernatant). Conditions: bronchial epithelial cells infected with Aspergillus fumigatus; read-out: MIC50 Infection of BEAS2B cells. The format is cell-based. As for the experimental part: BEAS2B cells were seeded in 96-well plates (100 µL; 30,000 cells / well; Catalogue No 3596, Sigma Aldrich, Dorset, UK) in 10% FBS RPMI-1640 and were then incubated (37° C., 5% CO2) for one day before experimentation. Test compounds (0.5 µL DMSO solution) or vehicle (DMSO) were added to each well to give a final DMSO concentration of 0.5%. BEAS2B cells were incubated with test compounds for 1 hr (35° C., 5% CO2) before infection with aspergillus fumigatus (20 µL; Public Health England) conidia suspension (0.5×10^5 /ml in 10% FBS RPMI-1640). The plate was incubated for 24 hr (35° C., 5% CO2). Supernatant (50 µL) was collected and transferred to a PCR plate (Catalogue No L1402-9700, Starlab, Milton Keynes, UK), which was frozen (-20° C.) until use. After thawing, supernatant (5 µL) was diluted 1:20 by adding R7-PBS solution (95 µL; 1:4 R7 to PBS; Bio-Rad Laboratories, Redmond, WA, USA). GM levels in these samples (50 µL) were measured using Platelia GM-EIA kits (Bio-Rad Laboratories, Redmond, WA, USA). The percentage inhibition for each well was calculated and the IC50 value was calculated from the concentration-response curve generated for each test compound.

Series [2] can be described thus: Cell viability: resazurin assay. Conditions: human, BEAS2B cells; n = 3-5. The format is cell-based, human. The protocol:
BEAS2B cells were seeded in 384-well plates (100 µL; 3000 / well /; BD Falcon, Catalogue No 353962) in RPMI-LHC8 (RPMI-1640 and LHC8 media combined in equal proportions) one day before experimentation. For cell-free control wells, RPMI-LHC8 (100 µL) was added. Test compounds (0.5 µL of a DMSO solution) were added to give a final DMSO concentration of 0.5% using an Integra VIAFLO 96 (Integra, Zizers, Switzerland). BEAS2B cells were incubated with each test compound for 1 day (37° C. / 5% CO2 in RPMI-LHC8). After addition of resazurin stock solution (5 µL, 0.04%) the plates were incubated for a further 4 hr (37° C. / 5% CO2). The fluorescence of each well at 545 nm (excitation) and 590 nm (emission) was determined using a multi-scanner (Clariostar: BMG Labtech). The percentage loss of cell viability was calculated for each well relative to vehicle (0.5% DMSO) treatment. Where appropriate, a CC50 value was calculated from the concentration-response curve generated from the concentration-response curve for each test compound.
In general terms: Alamar Blue is a resazurin reagent that responds to reducing activity.

Series [3] relates to Aspergillus fumigatus L98H (TR34/L98H). Description: Broth microdilution assay (modified EUCAST). The format is cell-based. The note with it: Aspergillus fumigatus, read-out: MIC75 against Aspergillus fumigatus isolate L98H. The protocol: (§1) This assay was conducted using a modified method published by EUCAST (Rodriguez-Tudela et al., 2008). Spores of aspergillus fumigatus (NCPF2010, NCPF7010 (Methionine 220 mutation), NCPF7099 (Glycine G54 mutation) from Public Health England, Wiltshire; TR34/L98H mutants from St Louis Hospital, Paris, France) were cultured in Sabouraud dextrose agar for 3 days. A stock spore suspension was prepared from a Sabouraud dextrose agar culture by washing with PBS-tween (10 mL; PBS containing 0.05% Tween-20, 100 U/mL Penicillin and 100 U/mL Streptomycin). The spore count was assessed using a Neubauer haemocytometer and then adjusted to 10^6 spores/mL with PBS. A working suspension of spores (2 × 10^5 spores/mL) was prepared in filter sterilised, BSA MOPS RPMI-1640 (50 mL; RPMI-1640 containing 2 mM L-glutamine, 0.5% BSA, 2% glucose, 0.165 M MOPS, buffered to pH 7 with NaOH). For the assay, BSA MOPS RPMI-1640 (50 µL/well) was added throughout the 384-well plate (Catalogue number 353962, BD Falcon, Oxford, UK) first. Test compounds (0.5 µL DMSO solution) were then added in quadruplicate using an Integra VIAFLO 96 (Integra, Zizers, Switzerland), and mixed well using a plate mixer. Subsequently 50 µL of the working spore suspension prepared above was added to all wells except non-spore control wells. For non-spore control wells, BSA MOPS-RPMI solution (50 µL/well) was added instead. The plate was covered with a plastic lid, and incubated (35° C. with ambient air) for 48 hr. The OD of each well at 530 nm was determined using a multi-scanner (Clariostar: BMG, Buckinghamshire, UK). The percentage inhibition for each well was calculated and the MIC50, MIC75 and MIC90 values were calculated from the concentration-response curve generated for each test compound.
(Broth dilution looks for growth in wells or tubes with falling amounts of substance.)

In series [4] the test system is Aspergillus fumigatus NCPF2010. Description: Broth microdilution assay (modified EUCAST). The series is classed as cell-based. The note with it: Aspergillus fumigatus, NCPF2010, read-out: MIC75 against Aspergillus fumigatus isolate NCPF2010. The protocol:
as §1

Series [5] concerns Aspergillus fumigatus NCPF7099. Description: Broth microdilution assay (modified EUCAST). The series is classed as cell-based. The note with it: Aspergillus fumigatus, NCPF7099, n = 3, read-out: MIC75 against Aspergillus fumigatus isolate NCPF7099. As for the experimental part: as §1
For series [6], the system named is Aspergillus fumigatus NCPF7100. Description: Broth microdilution assay (modified EUCAST). The format is cell-based. Conditions: Aspergillus fumigatus, NCPF7100, read-out: MIC75 against Aspergillus fumigatus isolate NCPF7100.

Converted amounts (≈) assume the structure as drawn.

Broadly, the MIC50 is the lowest concentration that inhibits either 50% of growth or 50% of the strains tested, depending on the study. In general, CC50 refers to the concentration giving 50% cytotoxicity. Higher therefore signals better tolerance by the cells.

`Cc1cc(N2CCN(c3ccc(C(=O)Nc4cccc(C#N)c4)cc3)CC2)ccc1OC[C@@H]1CO[C@@](Cn2cncn2)(c2ccc(F)cc2F)C1` [Example 8, 4-(4-(4-(((3R,5R)-5-((1H-1,2,4-triazol-1-yl)methyl)-5-(2,4-difluorophenyl)tetrahydrofuran-3-yl)methoxy)-3-methylphenyl)piperazin-1-yl)-N-(3-cyanophenyl)benzamide]: in series [1], the MIC50 amounted to 0.0142 µM (≈ 0.00979 µg/mL). In addition, half-maximal cytotoxicity in series [2] (CC50 at 1 day) was put at 0.548 µM. In addition, the MIC in series [3] was > 1.45 µM; in series [4], 0.0127 µM (≈ 0.00876 µg/mL); in series [5] it was > 1.45 µM; in series [6], > 1.45 µM.
Take `Cc1cc(N2CCN(c3ccc(C(=O)Nc4cc(C#N)ccn4)cc3)CC2)ccc1OC[C@@H]1CO[C@@](Cn2cncn2)(c2ccc(F)cc2F)C1` [Example 37, 4-(4-(4-(((3R,5R)-5-((1H-1,2,4-triazol-1-yl)methyl)-5-(2,4-difluorophenyl)tetrahydrofuran-3-yl)methoxy)-3-methylphenyl)piperazin-1-yl)-N-(4-cyanopyridin-2-yl)benzamide]: the MIC50 in series [1] was 0.0188 µM (≈ 0.013 µg/mL). Also, in series [2], the CC50 at 1 day is > 14.5 µM. Besides, the MIC in series [3] was 0.194 µM (≈ 0.134 µg/mL); in series [4] it was 0.0284 µM (≈ 0.0196 µg/mL); in series [5] it was 0.0246 µM (≈ 0.017 µg/mL); in series [6] it was 0.022 µM (≈ 0.0152 µg/mL).
As to `Cc1cc(N2CCN(c3ccc(C(=O)Nc4ccc(OC(F)F)cc4)cc3)CC2)ccc1OC[C@@H]1CO[C@@](Cn2cncn2)(c2ccc(F)cc2F)C1` [Example 12, 4-(4-(4-(((3R,5R)-5-((1H-1,2,4-triazol-1-yl)methyl)-5-(2,4-difluorophenyl)tetrahydrofuran-3-yl)methoxy)-3-methylphenyl)piperazin-1-yl)-N-(4-difluoromethoxyphenyl)benzamide], in series [1], the MIC50 worked out at 0.0973 µM (≈ 0.0711 µg/mL). Further, the CC50 at 1 day in series [2] is > 13.7 µM. For the same compound, the MIC in series [3] amounted to 0.0459 µM (≈ 0.0335 µg/mL); in series [4], 0.0134 µM (≈ 0.00979 µg/mL); in series [5], 0.0228 µM (≈ 0.0167 µg/mL); in series [6], 0.0303 µM (≈ 0.0221 µg/mL).
For the compound `Cc1cc(N2CCN(c3ccc(C(=O)Nc4ccc(C#N)cc4)cc3)CC2)cc(C)c1OC[C@@H]1CO[C@@](Cn2cncn2)(c2ccc(F)cc2F)C1` [Example 11, 4-(4-(4-(((3R, 5R)-5-((1H-1,2,4-triazol-1-yl)methyl)-5-(2,4-difluorophenyl)tetrahydrofuran-3-yl)methoxy)-3,5-dimethylphenyl)piperazin-1-yl)-N-(4-cyanophenyl)benzamide], the MIC50 in series [1] came to 0.284 µM (≈ 0.2 µg/mL). For the same compound, in series [2], the CC50 at 1 day was > 14.2 µM. Also, the MIC was 0.179 µM (≈ 0.126 µg/mL) in series [3], 0.0236 µM (≈ 0.0166 µg/mL) in series [4], 0.049 µM (≈ 0.0345 µg/mL) in series [5] and 0.0529 µM (≈ 0.0372 µg/mL) in series [6].
As to `Cc1cc(N2CCN(c3ccc(C(=O)Nc4cc(F)ccc4F)cc3)CC2)ccc1OC[C@@H]1CO[C@@](Cn2cncn2)(c2ccc(F)cc2F)C1` [Example 26, 4-(4-(4-(((3R, 5R)-5-((1H-1,2,4-triazol-1-yl)methyl)-5-(2,4-difluorophenyl)tetrahydrofuran-3-yl)methoxy)-3-methylphenyl)piperazin-1-yl)-N-(2,5-difluorophenyl)benzamide], the MIC50 in series [1] is > 1.43 µM. Also, in series [2], the CC50 at 1 day was > 14.3 µM. Also, the MIC was found to be 0.126 µM (≈ 0.0883 µg/mL) in series [3], 0.0311 µM (≈ 0.0218 µg/mL) in series [4], 0.131 µM (≈ 0.0918 µg/mL) in series [5] and 0.091 µM (≈ 0.0638 µg/mL) in series [6].
As for `NS(=O)(=O)c1ccc(NC(=O)c2ccc(N3CCN(c4ccc(OCC5CO[C@@](Cn6cncn6)(c6ccc(F)cc6F)C5)c(F)c4)CC3)cc2)cc1` (stereo in doubt) [Example 22, 4-(4-(4-(((3R,5R)-5-((1H-1,2,4-triazol-1-yl)methyl)-5-(2,4-difluorophenyl)tetrahydrofuran-3-yl)methoxy)-3-fluorophenyl)piperazin-1-yl)-N-(4-sulfamoylphenyl)benzamide], the MIC50 in series [1] came to 0.00477 µM (≈ 0.00357 µg/mL). Besides, the CC50 at 1 day in series [2] was > 13.4 µM. Also, the MIC is > 1.34 µM in series [3], 0.0113 µM (≈ 0.00845 µg/mL) in series [4], 0.0164 µM (≈ 0.0123 µg/mL) in series [5] and 0.022 µM (≈ 0.0165 µg/mL) in series [6].
Consider `Cc1cc(N2CCN(c3ccc(C(=O)Nc4ccc(Cl)cc4F)cc3)CC2)ccc1OC[C@@H]1CO[C@@](Cn2cncn2)(c2ccc(F)cc2F)C1` [Example 29, 4-(4-(4-(((3R, 5R)-5-((1H-1,2,4-triazol-1-yl)methyl)-5-(2,4-difluorophenyl)tetrahydrofuran-3-yl)methoxy)-3-methylphenyl)piperazin-1-yl)-N-(4-chloro-2-fluorophenyl)benzamide], for which the MIC50 in series [1] was determined as 0.0145 µM (≈ 0.0104 µg/mL). Further, the CC50 at 1 day in series [2] was > 13.9 µM. Besides, the MIC in series [3] turned out to be 0.12 µM (≈ 0.0861 µg/mL); in series [4] it was 0.0285 µM (≈ 0.0204 µg/mL); in series [5], 0.037 µM (≈ 0.0265 µg/mL); in series [6] it was 0.0538 µM (≈ 0.0386 µg/mL).
In the case of `Cc1cc(N2CCN(c3ccc(C(=O)Nc4ccc(OC(F)F)c(F)c4)cc3)CC2)ccc1OC[C@@H]1CO[C@@](Cn2cncn2)(c2ccc(F)cc2F)C1` [Example 25, 4-(4-(4-(((3R,5R)-5-((1H-1,2,4-triazol-1-yl)methyl)-5-(2,4-difluorophenyl)tetrahydrofuran-3-yl)methoxy)-3-methylphenyl)piperazin-1-yl)-N-(4-(difluoromethoxy)-3-fluorophenyl) benzamide], the MIC50 in series [1] turned out to be 0.23 µM (≈ 0.172 µg/mL). Besides, the CC50 at 1 day in series [2] was > 13.4 µM. In addition, the MIC in series [3] was found to be 0.0659 µM (≈ 0.0493 µg/mL); in series [4], 0.0845 µM (≈ 0.0633 µg/mL); in series [5] it was 0.0251 µM (≈ 0.0188 µg/mL); in series [6], 0.0476 µM (≈ 0.0356 µg/mL).
Turning to `Cc1cc(N2CCN(c3ccc(C(=O)Nc4ccc(F)cc4)cc3C)CC2)ccc1OC[C@@H]1CO[C@@](Cn2cncn2)(c2ccc(F)cc2F)C1` [Example 32, 4-(4-(4-(((3R,5R)-5-((1H-1,2,4-triazol-1-yl)methyl)-5-(2,4-difluorophenyl)tetrahydrofuran-3-yl)methoxy)-3-methylphenyl)piperazin-1-yl)-N-(4-fluorophenyl)-3-methylbenzamide], the MIC50 in series [1] worked out at 0.0261 µM (≈ 0.0182 µg/mL). Also, in series [2], the CC50 at 1 day is > 14.4 µM. The MIC in series [3] amounted to 0.0695 µM (≈ 0.0484 µg/mL); in series [4] it was 0.0697 µM (≈ 0.0486 µg/mL); in series [5], 0.0481 µM (≈ 0.0335 µg/mL); in series [6], 0.0609 µM (≈ 0.0424 µg/mL).
For the compound `Cc1cc(N2CCN(c3ccc(C(=O)Nc4ccc(F)cn4)cc3)CC2)ccc1OC[C@@H]1CO[C@@](Cn2cncn2)(c2ccc(F)cc2F)C1` [Example 6, 4-(4-(4-(((3R,5R)-5-((1H-1,2,4-Triazol-1-yl)Methyl)-5-(2,4-Difluorophenyl)Tetra Hydrofuran-3-yl)Methoxy)-3-Methylphenyl)Piperazin-1-yl)-N-(5-Fluoropyridin-2-yl) Benzamide], in series [1], the MIC50 turned out to be 0.0239 µM (≈ 0.0163 µg/mL). Also, the CC50 at 1 day in series [2] is > 14.6 µM. Also, the MIC in series [3] was found to be 0.131 µM (≈ 0.0896 µg/mL); in series [4] it was 0.0125 µM (≈ 0.00855 µg/mL); in series [5], 0.0212 µM (≈ 0.0145 µg/mL); in series [6], 0.0214 µM (≈ 0.0146 µg/mL).

Values taken from US20230295133A1, “PROCESS FOR PREPARING A COMPOUND USEFUL TO TREAT MYCOSES” (PULMOCIDE LIMITED, priority 2014, published 2023).
